In patent US9359383B2, “β-ketoimine ligand, method of preparing the same, metal complex comprising the same and method of forming thin film using the same” (SAMSUNG ELECTRONICS CO., LTD., priority 2011, dated 2016):

What was measured:
[1] = Evaluation of solubility in organic solvent (Test Example 2); type: physicochemical; details: 0.1-0.7 mol added to 1000 ml solvent, sealed, stood 24 hours, visual observation
Protocol: For the strontium complex compounds of Examples 1 to 3 and Comparative Examples 2 to 8, the solubilities of the complex compounds in ethyl cyclohexane, diethyl glycol dimethyl ether and toluene were evaluated. The evaluation was performed by adding 0.1-0.7 mol of each of the strontium complex compounds to 1000 ml of each of the organic solvents, sealing the mixtures, allowing the mixtures to stand for 24 hours, and visually observing whether a solid occurred in the mixtures. […] In Table 3, the case in which the complex compound was dissolved at a concentration of less than 0.1 mol was indicated as “x”.

[2] = Thermal stability by TGA (Test Example 3); type: physicochemical; details: dry argon 100 ml/min, heating rate 10° C./min, sample 7-12 mg
Protocol: (§1) The strontium complex compounds of Examples 1 to 3 and Comparative Examples 5 to 8 were measured for thermal stability by TGA and DSC. The TGA measurement was carried out under the following conditions: dry argon flow rate: 100 ml/min; heating rate: 10° C./min; and a sample amount of 7-12 mg. The DSC measurement was carried out by injecting a sample into a closed metal container in a glove box in a dry argon atmosphere and heating the sample container at a rate of 10° C./min, in which the amount of the sample was 1-4 mg. In the TGA measurement, sampling and measurement were carried out in the glove box in the dry argon atmosphere.

[3] = Thermal stability by DSC (Test Example 3); type: physicochemical; details: closed metal container, dry argon, heating rate 10° C./min, sample 1-4 mg
Protocol: as §1

[4] = Purification by distillation under reduced pressure (thermal stability); type: physicochemical; details: distillation at 30-50 Pa and 200-220° C.
Protocol: Strontium complex compounds of Comparative Examples 1 to 8 were prepared using the β-ketoimine ligands, obtained in Synthesis Examples 4 to 11, in the same manner as Example 1. Purification of the strontium complex compounds of Comparative Examples 3, 4, 5, 6 and 8, which could be distilled, was carried out at a pressure of 30-50 Pa and a temperature of 200˜220° C. […] The strontium complex compounds of Comparative Examples 1 to 8 were analyzed in the same manner as Examples 1 to 3, thereby determining the chemical structures thereof.

SMILES | concentration of the strontium complex compound in the transparent liquid in which no solid was present, Diethylene glycol dimethyl ether [1] | concentration of the strontium complex compound in the transparent liquid in which no solid was present, Ethyl cyclohexane [1] | concentration of the strontium complex compound in the transparent liquid in which no solid was present, Toluene [1] [mol] | Remaining amount (wt % at 400 ° C.) [2] [wt %] | Decomposition peak top temperature (° C.) [3] [°C] | melting point [°C] | thermal stability (could not be purified by distillation) [4]
COCC(C)(C)C1=[O+][Sr-4]234([O+]=C(C(C)(C)COC)C=C(C(C)C)[N]2C(C)C[N+]3(C)C)[N](C(C(C)C)=C1)C(C)C[N+]4(C)C (stereo not drawn) [Example 1] | 0.7 mol | 0.7 mol | 0.7 | 0.61 | 382.4 | 140 to 141 | 
CCC(C)C(=CC(=O)C(C)(C)COC)[N]([Sr][N](C(=CC(=O)C(C)(C)COC)C(C)CC)C(C)CN(C)C)C(C)CN(C)C (stereo not drawn) [Example 3] | 0.7 mol | 0.7 mol | 0.7 | 0.87 | 393.2 |  | 
CCOCC(C)(C)C(=O)C=C(C(C)C)[N]([Sr][N](C(=CC(=O)C(C)(C)COCC)C(C)C)C(C)CN(C)C)C(C)CN(C)C (stereo not drawn) [Example 2] | 0.7 mol | 0.6 mol | 0.7 | 1.40 | 360.7 |  | 
CC(C)C1=[N+](C(C)CN(C)C)[Sr-2]2([O]C(C(C)(C)C)=C1)[O]C(C(C)(C)C)=CC(C(C)C)=[N+]2C(C)CN(C)C (stereo not drawn) [Comparative Example 4] | 0.4 mol | 0.3 mol | 0.7 |  |  |  | 
CC1=[N+](CCN(C)C)[Sr-2]2([O]C(C(C)(C)C)=C1)[O]C(C(C)(C)C)=CC(C)=[N+]2CCN(C)C [Comparative Example 2] | 0.3 mol | X (the case in which the complex compound was dissolved at a concentration of less than 0.1 mol was indicated as “x”) | 0.3 |  |  |  | low thermal stability
COCC[N+]1=C(C)C=C(C(C)(C)C)[O][Sr-2]12[O]C(C(C)(C)C)=CC(C)=[N+]2CCOC [Comparative Example 1] |  |  |  |  |  |  | low thermal stability
COCCCC1=[N+](CCCN(C)C)[Sr-2]2([O]C(C(C)(C)C)=C1)[O]C(C(C)(C)C)=CC(CCCOC)=[N+]2CCCN(C)C [Comparative Example 5] | 0.4 mol | X (the case in which the complex compound was dissolved at a concentration of less than 0.1 mol was indicated as “x”) | 0.1 | 26.2 | 336.8 |  | 
COCC(C)[N+]1=C(C(C)C)C=C(C(C)(C)COC)[O][Sr-2]12[O]C(C(C)(C)COC)=CC(C(C)C)=[N+]2C(C)COC (stereo not drawn) [Comparative Example 6] | 0.4 mol | 0.5 mol | 0.4 | 3.7 | 363.0 |  | 
COCCC(C)(C)C1=CC(C(C)C)=[N+](C(C)CN(C)C)[Sr-2]2([O]1)[O]C(C(C)(C)CCOC)=CC(C(C)C)=[N+]2C(C)CN(C)C (stereo not drawn) [Comparative Example 8] | X (the case in which the complex compound was dissolved at a concentration of less than 0.1 mol was indicated as “x”) | X (the case in which the complex compound was dissolved at a concentration of less than 0.1 mol was indicated as “x”) | 0.1 | 3.97 | 368.2 |  | 
COCC(C)(C)C1=CC(C(C)C)=[N+](CCN(C)C)[Sr-2]2([O]1)[O]C(C(C)(C)COC)=CC(C(C)C)=[N+]2CCN(C)C [Comparative Example 7] | 0.2 mol | 0.3 mol | 0.3 | 10.2 | 337.5 |  | low thermal stability
